# Tests used:
# Type in all cases: physicochemical
# [1] = DI water slurry during the concurrent process control screen; details: several hours (2-24 hours)
# [2] = Moisture-sorption analysis (adsorption/desorption, then drying 1 h at 80° C. and XRPD) (Table 40)
# Description: Moisture-sorption experiments were carried out on three forms by first drying the sample at 0% RH and 25° C. until an equilibrium weight was reached or for a maximum of four hours. The sample was then subjected to an isothermal (25° C.) adsorption scan from 10 to 90% RH in steps of 10%. The sample was allowed to equilibrate to an asymptotic weight at each point for a maximum of four hours. Following adsorption, a desorption scan from […] to 0% RH (at 25° C.) was run in steps of −10%, again allowing a maximum of four hours for equilibration to an asymptotic weight. The sample was then dried for one hour at 80° C. and the resulting solid analyzed by XRPD.
# [3] = Karl Fischer analysis (KF), water content; details: theoretical for a monohydrate 3.2%
# Description: Water content was determined by adding solid sample to the instrument with HYDRANAL-Coulomat AD. Micrograms of water were determined by coulometric titration.
# [4] = Humidity chamber study at 0% and 95% RH, one week, XRPD and KF (Table 38); details: 95% RH for one week, ambient temperature
# Description: The 0% RH chamber was prepared with drierite and the 95% RH chamber was made with a saturated solution of Na2HPO4.12H2O in DI water. The chambers were equilibrated for >1 week prior to introducing samples. Samples were placed in Teflon-lined caps for scintillation vials and allowed to equilibrate for one week then analyzed by XRPD and KF to determine form and water content.
# FIG. 60 summarizes the conversion of the forms of Compound 1 observed from slurry and humidity chamber studies.
# [5] = 1 week slurry experiments in water, IPA, EtOAc, MeCN, EtOH and dioxane, form by XRPD (Table 34); details: room temperature, one week
# Description: Each vial was charged with approximately 25-30 mg of API and 1 mL of the corresponding solvent, followed by stirring at room temperature for one week. […] The obtained solids were isolated by filtration, dried under vacuum at room temperature and analyzed by XRPD.
# [6] = MeCN/water slurry experiments of Forms A and C at ambient temperature (Table 35); details: MeCN/water at different ratios
# Description: Slurry experiments of Compound 1, Forms A and C, were conducted in mixtures of MeCN and water. Each vial was charged with approximately 40 mg of Compound 1 (pure Form A, pure Form C, or 50:50 mixtures) and 2 mL of MeCN/water mixture in a 1:9, 1:1, and 9:1 ratio. […] All samples were stirred at room temperature for approximately 24 hours. An aliquot (1 mL) of the suspension was taken from the slurries (samples #1, 3, 4, 6, 7 and 9) for determination of form by XRPD. All aliquots were filtered and dried in vacuo at 30 mm Hg and ambient temperature. All samples were stirred at ambient temperature for an additional six days, filtered, dried, and again the solid form and filterability were determined.
SMILES,form isolated after slurry in DI water [1],hygroscopicity (moisture sorption curve) ([2]; 25° C.),hysteresis upon desorption ([2]; 25° C.),"maximum water uptake ([2]; at 90% RH, 25° C.) [%]",XRPD pattern after drying ([2]; dried for one hour at 80° C.),water content by KF [3] [%],form after humidity exposure [4],form after slurry in non-aqueous solvents ([5]; solvents other than water),form isolated after slurry in water ([5]; water slurry),form after acetonitrile/water slurries [6]
CCS(=O)(=O)c1cccc(-c2cc(C(=O)NC3CCN(C)CC3)c(C)c3[nH]c4ncc(C)cc4c23)c1 [Form B],Form A was isolated,–,–,–,–,–,–,–,–,–
CCS(=O)(=O)c1cccc(-c2cc(C(=O)NC3CCN(C)CC3)c(C)c3[nH]c4ncc(C)cc4c23)c1 [Form C],–,slightly hygroscopic,not observed,1.9,consistent to the starting form,1.4,converted to Form A,stable anhydrate form in non-aqueous environments,converted to the monohydrate Form A,converted to the monohydrate Form A

# From patent publication US20090270442A1, “POLYMORPHS OF HYDROCHLORIDE SALT OF 5-(3-(ETHYLSULFONYL)PHENYL)-3,8-DIMETHYL-N-(1-METHYLPIPERIDIN-4-YL)-9H-PYRIDO[2,3-B]INDOLE-7-CARBOXAMIDE AND METHODS OF USE THEREFOR” (TAKEDA PHARMACEUTICAL COMPANY LIMITED, priority 2008, published 2009)
